Laboratory results reported in article PMC10746543, “Design principles for cyclin K molecular glue degraders” (Nature Chemical Biology, 2023).
Several values for one entry are separate records, joined by “and”; a condition that tells them apart may be missing. Equal entries are not always repeated. Where two headings read alike, the source gives them in different places. Blank lines part the entries; values can stand above or below the molecule they belong to.

Columns and labels:
HEK293T cells = test: Drug sensitivity assay (CellTiter-Glo viability) with or without MLN4924 pretreatment; type: cell-based, human; conditions: Supplementary Table 2; for EC50: Homo sapiens, HEK-293T, HEK293T viability, 72 h, compound alone, read-out: Cellular assays EC50; for Toxicity rescue: MLN4924-mediated cytotoxicity rescue, 10 µM used where n.d.
Outline: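 HEK293T–Cas9, 0.15 × 10^6 ml^−1; pretreat DMSO vs 100 nM MLN4924; drugs dispensed after 2 h; 3 d exposure; CellTiter-Glo; viability vs DMSO control.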

CDK12–cyclin K and DDB1 = target: T1, CDK12–cyclin K and DDB1 (Homo sapiens, UniProt Q16531+Q9NYV4, K965R); test: TR-FRET ternary complex formation assay (compound titration); type: binding
T1 construct: His6–CDK12 (a.a. 713–1,052); full-length or beta-propeller B domain deletion (ΔBPB: a.a. 396–705 deleted) constructs of His6–DDB1ΔBPB, StrepII–Avi–DDB1, or His6–Spy–DDB1; made in house; host or cells: Trichoplusia ni High Five insect cells (baculovirus)
Outline: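 Signal was the ratio of 520 nm to 490 nm fluorescence, measured after a 70 μs delay that reduced background.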

[1] = test system: cyclin K–eGFP degradation reporter; test: Cyclin K reporter stability analysis (dual-color cyclin K–eGFP reporter); type: cell-based, human
Outline: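 First, reporter-bearing HEK293T–Cas9 cells are plated at 1 × 10^6 ml^−1. Next, drug or vehicle is added for 5 h. Finally, geometric-mean eGFP and mCherry signals of round, mCherry-positive cells are measured cytometrically, and their ratio is referenced to the DMSO average.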

T1 sequence (Q9NYV4 713-1052 K965R): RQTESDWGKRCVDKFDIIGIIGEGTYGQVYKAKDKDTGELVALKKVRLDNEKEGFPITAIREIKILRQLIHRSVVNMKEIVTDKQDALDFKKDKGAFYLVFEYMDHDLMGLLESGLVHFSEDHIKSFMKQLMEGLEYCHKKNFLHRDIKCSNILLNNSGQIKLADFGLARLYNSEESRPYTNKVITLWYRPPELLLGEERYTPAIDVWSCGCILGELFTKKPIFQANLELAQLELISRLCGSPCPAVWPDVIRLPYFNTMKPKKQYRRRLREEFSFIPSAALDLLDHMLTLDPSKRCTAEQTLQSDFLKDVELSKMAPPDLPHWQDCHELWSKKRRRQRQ
T1 sequence (O75909 1-267 partner): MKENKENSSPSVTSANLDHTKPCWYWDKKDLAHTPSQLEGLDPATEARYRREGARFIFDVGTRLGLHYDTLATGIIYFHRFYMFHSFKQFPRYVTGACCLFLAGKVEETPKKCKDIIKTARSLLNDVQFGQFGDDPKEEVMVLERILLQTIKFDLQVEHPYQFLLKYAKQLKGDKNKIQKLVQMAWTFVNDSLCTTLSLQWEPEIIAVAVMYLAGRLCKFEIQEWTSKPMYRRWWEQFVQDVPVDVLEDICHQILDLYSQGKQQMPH
T1 sequence (Q16531 whole entry): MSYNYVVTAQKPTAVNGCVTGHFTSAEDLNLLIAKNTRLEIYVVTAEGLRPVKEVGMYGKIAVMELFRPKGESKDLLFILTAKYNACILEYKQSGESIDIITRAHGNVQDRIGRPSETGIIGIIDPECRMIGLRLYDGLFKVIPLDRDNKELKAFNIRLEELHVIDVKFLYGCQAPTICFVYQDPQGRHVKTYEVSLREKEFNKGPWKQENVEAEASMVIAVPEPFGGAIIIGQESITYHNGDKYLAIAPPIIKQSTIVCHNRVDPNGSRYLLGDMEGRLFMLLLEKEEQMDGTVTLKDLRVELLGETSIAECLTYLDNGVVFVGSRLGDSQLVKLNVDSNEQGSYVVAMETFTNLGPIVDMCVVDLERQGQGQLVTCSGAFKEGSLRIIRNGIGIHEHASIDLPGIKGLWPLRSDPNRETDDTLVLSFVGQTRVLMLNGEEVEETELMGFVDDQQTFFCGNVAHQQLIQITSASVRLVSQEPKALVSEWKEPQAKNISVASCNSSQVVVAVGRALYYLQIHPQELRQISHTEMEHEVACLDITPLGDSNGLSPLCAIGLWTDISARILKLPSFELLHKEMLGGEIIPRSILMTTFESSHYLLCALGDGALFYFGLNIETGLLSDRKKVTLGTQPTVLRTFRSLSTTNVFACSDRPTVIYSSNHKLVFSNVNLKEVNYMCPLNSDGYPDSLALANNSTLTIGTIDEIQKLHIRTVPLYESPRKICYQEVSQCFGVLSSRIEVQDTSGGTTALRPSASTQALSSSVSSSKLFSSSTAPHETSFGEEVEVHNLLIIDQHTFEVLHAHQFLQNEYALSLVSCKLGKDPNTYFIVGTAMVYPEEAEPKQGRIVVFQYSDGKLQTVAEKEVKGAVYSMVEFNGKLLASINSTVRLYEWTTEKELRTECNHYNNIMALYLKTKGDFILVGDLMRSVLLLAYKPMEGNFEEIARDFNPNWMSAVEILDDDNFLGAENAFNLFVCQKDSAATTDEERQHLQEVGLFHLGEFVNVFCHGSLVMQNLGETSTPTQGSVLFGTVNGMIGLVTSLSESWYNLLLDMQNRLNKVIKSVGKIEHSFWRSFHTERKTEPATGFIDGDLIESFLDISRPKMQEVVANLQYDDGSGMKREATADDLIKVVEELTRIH

TR-FRET signal at compound concentration 0.468 nM (CDK12–cyclin K and DDB1; compound concentration 0.468 nM, raw titration data): 0.2749 and 0.2901 | TR-FRET signal at compound concentration 2.16 nM (CDK12–cyclin K and DDB1; compound concentration 2.16 nM, raw titration data): 0.3467 and 0.3488 | TR-FRET signal at compound concentration 3.6 nM (CDK12–cyclin K and DDB1; compound concentration 3.6 nM, raw titration data): 0.4769 and 0.4631 | TR-FRET signal at compound concentration 7.92001 nM (CDK12–cyclin K and DDB1; compound concentration 7.92001 nM, raw titration data): 0.7379 and 0.6676 | TR-FRET signal at compound concentration 15.84 nM (CDK12–cyclin K and DDB1; compound concentration 15.84 nM, raw titration data): 1.149 and 0.9938 | TR-FRET signal at compound concentration 30.96 nM (CDK12–cyclin K and DDB1; compound concentration 30.96 nM, raw titration data): 1.778 and 1.5795 | TR-FRET signal at compound concentration 62.6401 nM (CDK12–cyclin K and DDB1; compound concentration 62.6401 nM, raw titration data): 2.574 and 2.417 | TR-FRET signal at compound concentration 125.28 nM (CDK12–cyclin K and DDB1; compound concentration 125.28 nM, raw titration data): 3.287 and 3.206 | TR-FRET signal at compound concentration 244.8 nM (CDK12–cyclin K and DDB1; compound concentration 244.8 nM, raw titration data): 3.511 and 3.701 | TR-FRET signal at compound concentration 993.601 nM (CDK12–cyclin K and DDB1; compound concentration 993.601 nM, raw titration data): 3.896 and 4.02 | TR-FRET signal at compound concentration 2001.6 nM (CDK12–cyclin K and DDB1; compound concentration 2001.6 nM, raw titration data): 3.877 and 4.06 | EC50 (CDK12–cyclin K and DDB1; in vitro complex formation, 50 nM CDK12–cyclin K, 100 nM DDB1, text and figures, read-out: TR-FRET EC50): 46 ± 2 nM | EC50 (CDK12–cyclin K and DDB1; sheet MOESM7, read-out: log TR-FRET EC50 (converted)): 46 nM | EC50 (CDK12–cyclin K and DDB1; source data sheet correlations, read-out: TR-FRET EC50): 46 nM | DC50 ([1]; source data sheet correlations, read-out: DC50): 366 nM
Compound: CC(C)n1cnc2c(NCc3ccc(-c4ccccn4)cc3)nc(NCc3c(Cl)cncc3Cl)nc21 [DS48]
EC50 (HEK293T cells): 907 nM | Toxicity rescue (HEK293T cells): 313%

TR-FRET signal at compound concentration 4.68 nM (CDK12–cyclin K and DDB1; compound concentration 4.68 nM, raw replicate titration data): 0.1339 and 0.1541 | TR-FRET signal at compound concentration 21.6 nM (CDK12–cyclin K and DDB1; compound concentration 21.6 nM, raw replicate titration data): 0.1288 and 0.1496 | TR-FRET signal at compound concentration 36 nM (CDK12–cyclin K and DDB1; compound concentration 36 nM, raw replicate titration data): 0.1327 and 0.1506 | TR-FRET signal at compound concentration 79.2001 nM (CDK12–cyclin K and DDB1; compound concentration 79.2001 nM, raw replicate titration data): 0.1323 and 0.1494 | TR-FRET signal at compound concentration 158.4 nM (CDK12–cyclin K and DDB1; compound concentration 158.4 nM, raw replicate titration data): 0.1293 and 0.1473 | TR-FRET signal at compound concentration 309.6 nM (CDK12–cyclin K and DDB1; compound concentration 309.6 nM, raw replicate titration data): 0.1264 and 0.1438 | TR-FRET signal at compound concentration 626.401 nM (CDK12–cyclin K and DDB1; compound concentration 626.401 nM, raw replicate titration data): 0.1205 and 0.1382 | TR-FRET signal at compound concentration 1252.8 nM (CDK12–cyclin K and DDB1; compound concentration 1252.8 nM, raw replicate titration data): 0.1096 and 0.1174 | TR-FRET signal at compound concentration 2448 nM (CDK12–cyclin K and DDB1; compound concentration 2448 nM, raw replicate titration data): 0.09891 and 0.113 | TR-FRET signal at compound concentration 9936.01 nM (CDK12–cyclin K and DDB1; compound concentration 9936.01 nM, raw replicate titration data): 0.07702 and 0.08712 | TR-FRET signal at compound concentration 20016 nM (CDK12–cyclin K and DDB1; compound concentration 20016 nM, raw replicate titration data): 0.06845 and 0.07789 | DC50 ([1]; Supplementary Table 2, HEK293T cycK-eGFP reporter, 5 h, read-out: Cellular assays DC50): > 10000 nM
Compound: CO[C@@H](C(=O)N1Cc2n[nH]c(NC(=O)c3ccc(N4CCN(C)CC4)cc3)c2C1)c1ccccc1 [Danusertib, reference compound]
EC50 (HEK293T cells): > 10000 nM | Toxicity rescue (HEK293T cells): 0%
